Like-named read-outs stand apart in the source and are kept apart here.
Test system: human umbilical vein endothelial cells (HUVECs)
Assay: Tube formation assay of HUVEC on Matrigel
Format: cell-based
Details: for formation of microvascular network of HUVEC (pictures): FIGS. 6-9; for inhibition at 50 µM: Homo sapiens, read-out: Percent Inhibition
Protocol: In order to do the tube formation assay, blood vessel endothelial cells, human umbilical vein endothelial cells (HUVECs), were isolated from freshly obtained cords after cesarean section according to Grant's method (Grants D S, et al., Cell, 58, pp933-943, 1989). They were identified by immunocytochemial staining with anti-Factor VIII antibody. HUVECs grown with Matrigel (BD Bioscience, Bedford, Mass., USA), were treated with the above Horse chestnut extract of the Example 1, and further incubated at 37° C. for 8-16 hrs. As a control, above procedure was repeated without Horse chestnut extract.
In order to identify the component responsible for anti-aniogenic acvity of Horse chestnut extract, components identified as in EXAMPLE 2, were subjected to the tube formation assay as described above. Since those chemicals are not soluble in water, they were dissolved in dimethyl sulfoxide (DMSO). In order to exclude the effect of solvent, HUVECs treated with the same amount of DMSO were used as a control. FIG. 5 is a picture of the 1% DMSO-treated HUVEC control, and FIGS. 6-9 are pictures showing the effect of individual components of the Horse chestnut on tube formation. […] Tubular network was disconnected by treatment with 50 μM of quercitrin, and esculetin.
The area of the tube was determined by image analysis program Image-Pro Plus® (Media Cybernetics, USA), and the results were summarized in Tables 1 and 2. […]

[1] = HUVEC, 50 μM, vs 1% DMSO control
[2] = HUVEC tube formation, 50 μM, vs 1% DMSO control

Compound	formation of microvascular network of HUVEC (pictures) (50 μM)	Area of the Tube (%) [1]	inhibition at 50 µM [2]	inhibition at 50 µM (HUVEC)	Percent Inhibition [2]
O=c1ccc2cc(O)c(O)cc2o1 [Esculetin, esculetin]	disconnected	17%	83%		
O=c1ccc2cc(O[C@@H]3O[C@H](CO)[C@@H](O)[C@H](O)[C@H]3O)c(O)cc2o1 [Esculin, esculin]	less than that by esculetin	85%		15%	
C[C@@H]1O[C@@H](Oc2c(-c3ccc(O)c(O)c3)oc3cc(O)cc(O)c3c2=O)[C@H](O)[C@H](O)[C@H]1O [Quercitrin, quercitrin]		36%		64%	
aescin	completely inhibited	0%			100
